{"source": "patent US20110038959A1", "about": "“PLANT-ORIGIN DRUG FOR PREVENTING OR IMPROVING HYPERURICEMIA” (priority 2009, published 2011)", "key": {"[1]": {"system": "potassium oxonate-induced hyperuricemic rat models", "assay": "Uric acid level in blood of potassium oxonate-induced hyperuricemic rat models", "format": "in vivo, SD rats", "description": "5-week-old male SD rats were purchased from Japan SLC, Inc. and were acclimatized for 1 week. The rats were divided into groups based on body weight (each group consisting of 6 rats), and 5 groups were designated in total; i.e., a control group, a group to which the Artemisia extract is administered, a group to which the chrysanthemum extract is administered, a group to which the guava extract is administered, and a group to which the oregano extract is administered. At the outset, potassium oxonate (Sigma-Aldrich) was administered intraperitoneally to rats at a dose of 250 mg/kg of body weight to prepare potassium oxonate-induced hyperuricemic rat models. […] Blood serum was fractionated from the sampled blood via centrifugation and the uric acid level in the blood was measured. […] Blood serum was fractionated from the sampled blood via centrifugation and the uric acid level in the blood was measured. […] Blood serum was fractionated from the sampled blood via centrifugation and the uric acid level in the blood was measured."}, "[2]": {"molecular_target": "T1, buttermilk-derived xanthine oxidase (Bos taurus, UniProt P80457)", "T1 construct": "an enzyme solution comprising buttermilk-derived xanthine oxidase dissolved at 0.2 units/ml in phosphate buffer; from tissue; host or cells: buttermilk", "T1 sequence (P80457 whole entry)": "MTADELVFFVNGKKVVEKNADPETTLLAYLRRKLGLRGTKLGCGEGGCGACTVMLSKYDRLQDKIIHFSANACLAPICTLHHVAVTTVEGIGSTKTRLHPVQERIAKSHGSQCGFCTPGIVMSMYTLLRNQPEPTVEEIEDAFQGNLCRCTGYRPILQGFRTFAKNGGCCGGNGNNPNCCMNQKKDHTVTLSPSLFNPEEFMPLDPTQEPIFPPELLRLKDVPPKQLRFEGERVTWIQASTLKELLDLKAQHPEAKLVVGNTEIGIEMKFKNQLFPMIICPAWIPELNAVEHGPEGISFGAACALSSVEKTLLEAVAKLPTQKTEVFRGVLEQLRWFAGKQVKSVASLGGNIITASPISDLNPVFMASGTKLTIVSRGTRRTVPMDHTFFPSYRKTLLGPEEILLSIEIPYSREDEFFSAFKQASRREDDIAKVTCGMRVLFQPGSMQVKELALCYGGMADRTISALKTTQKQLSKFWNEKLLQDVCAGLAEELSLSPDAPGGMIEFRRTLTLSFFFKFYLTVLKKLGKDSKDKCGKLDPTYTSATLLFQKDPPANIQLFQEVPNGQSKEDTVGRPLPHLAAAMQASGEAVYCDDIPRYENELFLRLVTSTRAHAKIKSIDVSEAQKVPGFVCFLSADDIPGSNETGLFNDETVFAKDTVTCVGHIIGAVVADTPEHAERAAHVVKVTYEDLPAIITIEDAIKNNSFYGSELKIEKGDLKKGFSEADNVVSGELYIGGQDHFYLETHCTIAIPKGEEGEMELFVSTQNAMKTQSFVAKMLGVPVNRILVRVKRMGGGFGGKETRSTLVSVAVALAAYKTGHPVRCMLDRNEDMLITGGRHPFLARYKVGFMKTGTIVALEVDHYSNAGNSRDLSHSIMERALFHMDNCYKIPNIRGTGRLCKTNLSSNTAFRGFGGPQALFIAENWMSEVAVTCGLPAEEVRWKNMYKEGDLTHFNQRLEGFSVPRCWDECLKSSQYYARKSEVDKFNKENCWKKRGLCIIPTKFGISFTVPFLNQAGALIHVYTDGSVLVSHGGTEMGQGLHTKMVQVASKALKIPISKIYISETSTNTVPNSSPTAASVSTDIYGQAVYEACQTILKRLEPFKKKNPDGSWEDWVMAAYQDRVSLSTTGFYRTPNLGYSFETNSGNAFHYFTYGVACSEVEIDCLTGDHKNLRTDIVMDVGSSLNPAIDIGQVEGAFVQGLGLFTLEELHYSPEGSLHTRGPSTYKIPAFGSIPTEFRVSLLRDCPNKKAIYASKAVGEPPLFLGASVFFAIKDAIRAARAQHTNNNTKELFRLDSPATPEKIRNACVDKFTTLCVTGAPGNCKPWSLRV", "assay": "Xanthine oxidase inhibitory activity assay (xanthine substrate, uric acid detected by absorbance at 295 nm)", "format": "biochemical"}}, "data": [{"smiles": "O=C(/C=C/c1ccc(O)c(O)c1)c1ccc(O)c(O)c1O", "note": "[Okanin, okanin]", "values": [{"measurement": "Uric acid level in blood", "setting": "[1]; 50 mg okanin per kg body weight 1 hour after potassium oxonate (250 mg/kg i.p.), blood sampled 2 hours after potassium oxonate, control group 4.92 ± 0.53", "result": "4.10 ± 0.56", "unit": "mg/dL"}, {"measurement": "uric acid level after administration (in words)", "setting": "[1]; okanin 50 mg/kg, blood 2 hours after potassium oxonate, versus control group, Table 5", "result": "significantly lowered uric acid level"}, {"measurement": "xanthine oxidase activity compared with allopurinol (in words)", "setting": "[2]; comparison of IC50 values, Table 2", "result": "more potent xanthine oxidase activity than allopurinol"}, {"measurement": "IC50", "setting": "[2]; concentration inhibiting 50% of xanthine oxidase activity, solvent control = 100%", "result": 1500, "unit": "nM"}]}]}
